Patent publication US5017570A, “Dibenzoxazepine compounds useful in the treatment of cerebral vasospasm or its sequela” (Chugai Seiyaku Kabushiki Kaisha, priority 1986, dated 1991)
Where a name gives a salt, the structure may show the parent alone.

Assays:
[1] = tested on: regional cerebral blood flow (r-CBF); experiment: r-CBF by hydrogen clearance method in unanesthetized and unrestrained cats; format: in vivo, Siamese cats
Text: The present inventors therefore employed the hydrogen clearance method wherein unanesthetized and unrestrained cats, each having a platinum electrode embedded in the cerebral cortex at four points, i.e., post. sigmoid G., post. sylvian G., mid. ecto-sylvian G. and post. suprasylvian G., and in the deeper area of the brain at three points, i.e., hippocampus, amygdala and hypothalamus, were exposed to a predetermined amount of hydrogen gas in a chamber. Using this method, the effects of compound Nos. 1 and 2 of the present invention on the regional cerebral blood flow (r-CBF) were evaluated. At the same time, analyses of blood pressure, the pH of blood, the gaseous components of the blood, and blood sugar levels were conducted with catheters being embedded in the femoral artery and vein.
One month before the start of experiment, a platinum electrode was embedded in the cerebral cortex of Siamese cats (both female and male) at four points, i.e., post. sigmoid G., post sylvian G., mid. ecto-sylvian G. and post. suprasylvian G., and in the deeper area of the brain at three points, i.e., hippocampus, amygdala and hypothalamus, the cats being then exposed to a predetermined amount of hydrogen gas in a chamber in an unanesthetized and unrestrained state.
In order to evaluate the effects of compound Nos. 1 and 2 of the present invention on the regional cerebral blood flow (r-CBF), a predetermined amount of each test compound was administered either perorally (p.o.) in gelatin capsules or by intravenous injection (i.v.) In the latter case, 0.2 mg/kg or 1 mg/kg (body weight) of a selected compound of the present invention was dissolved in a quantity of physiological saline equivalent to 1 ml/kg (body weight) and the total amount of their solution was injected over a period of 10 minutes in a sustained manner through a cannula attached to a vein in the upper thigh; a control (vinpocetine) in an amount equivalent to 1 mg/kg or 5 mg/kg (body weight) was dissolved in a quantity of 10% ascorbic acid equivalent to […] (body weight) and the total amount of the solution was injected over a period of 10 minutes in a sustained manner through a cannula attached to a vein in the upper thigh.
In the r-CBF analysis, a clearance curve was obtained with a computer (Signal Processor 7T17, product of Nippon Electric Co., Ltd. and Sanei Co., Ltd.), transformed into semi-logarithmic values which were then processed by the initial slope method to calculate all the values of r-CBF. Only values having a coefficient of correlation of at least 0.9 for regression line were used as applicable data and the level of significance was determined by the paired-t test for absolute values, with the values before administration of a test compound being taken as a control. The level of significance for the control group was tested by time-series dispersion analysis.

[2] = tested on: cyclic-GMP content in the thoracic aortae; experiment: cyclic-GMP content in thoracic aorta rings by radioimmunoassay; format: cell-based, Sprague-Dawley male rats; conditions: 1×10^-6, 10^-5 or 10^-4 M, 37° C., 30 minutes
Experimental: Sprague-Dawley male rats were killed by decapitation, and their thoracic aortae were rapidly removed and immersed in ice-cold Krebs-Henseleit Ringer solution. The blood vessel was cut into rings with a length of about 3 mm and the weight of each wet tissue of the rings was measured. The rings of blood vessels were incubated at 37° C. for 30 minutes in portions of Krebs-Henseleit Ringer solution containing compound No. 1 (1×10^-6, 10^-5 or 10^-4 M) and vinpocetine (10^-4 M) under an atmosphere of 95% O2 - 5% CO2. Trichloroacetic acid (6%) was then added to the solution to stop the reaction and the cyclic-GMP content was determined by radioimunoassay method (YAMASA c-GMP Assay Kit).

[3] = tested on: basilar artery; experiment: Vasorelaxation of isolated basilar artery segments; format: cell-based, Beagles; conditions: 1 × 10^-5 M; for vasorelaxating action: in words
Experimental: Beagles of either sex weighing about 20 kg were anesthetized with i.v. administration of sodium […] (30 mg/kg) and were sacrificed by rapid exsanguination. After the brain was removed, the basilar artery was dissected out under magnification and was sectional in at 2- to 3-mm intervals. […] The segment was initially stretched at a tension of 400 mg for 1 hour with a force-displacement transducer (SB-1T, Nihon Kohden, Tokyo, Japan) during which time the buffer solution was changed several times. […] The total volume of agents never exceeded 25 μl or 5% of the chamber volume and experiments were done in the dark.

[4] = Experiment for acute toxicity (oral LD50); conditions: mouse, in vivo, 5-week old male CD-1 (ICR) mice
Experimental: Nos. 1, 2, 3 and 4 of the present invention were administered orally to 5-week old male CD-1 (ICR) mice and the LD50 values (g/kg) were determined by a routine method.

[5] = Experiment for subacute toxicity (30 days oral); format: in vivo, male rats (F344/crj); conditions: deaths/animals
Experimental: Compounds No. 1, IV, VI and VII were administered orally to male rats (F344/crj) at doses of […] body weight daily for 30 days and body weight gain were measured.

[6] = i.v. over 10 minutes, 0.2 mg/kg
[7] = minus: vasoconstriction, 0: no effect

SMILES: COc1ccc2c(c1)Oc1ccc(C(=O)O)cc1N=C2C [1 (Na salt), sodium salt of 3-methoxy-11-methyldibenzo[b,f][1,4]oxazepin-8-carboxylic acid]
- Retention time [1, 6]: < 4 h
- Percent increase of r-CBF, 30 min. [1, 6]: 9.5%
- Percent increase of r-CBF, 60 min. [1, 6]: 13.6%
- Retention time ([1]; i.v. over 10 minutes, 1 mg/kg): > 4 h
- Percent increase of r-CBF, 30 min. ([1]; i.v. over 10 minutes, 1 mg/kg): 13.3%
- Percent increase of r-CBF, 60 min. ([1]; i.v. over 10 minutes, 1 mg/kg): 14.7%

SMILES: CCC1=Nc2cc(C(=O)O)ccc2Oc2cc(OC)ccc21 [2 (Na salt), sodium salt of 3-methoxy-11-ethyldibenzo[b,f][1,4]oxazepin-8-carboxylic acid]
- Retention time [1, 6]: > 4 h
- Percent increase of r-CBF, 30 min. [1, 6]: 12.1%
- Percent increase of r-CBF, 60 min. [1, 6]: 21.0%
- Retention time ([1]; i.v. over 10 minutes, 1 mg/kg): > 4 h
- Percent increase of r-CBF, 30 min. ([1]; i.v. over 10 minutes, 1 mg/kg): 8.1%
- Percent increase of r-CBF, 60 min. ([1]; i.v. over 10 minutes, 1 mg/kg): 10.0%

SMILES: COc1ccc2c(c1)Oc1ccc(C(=O)O)cc1N=C2C [Compound No. 1, 3-methoxy-11-methyldibenzo[b,f][1,4]oxazepin-8-carboxylic acid]
- Retention time ([1]; p.o., 10 mg/kg): > 4 h
- Percent increase of r-CBF, 30 min. ([1]; p.o., 10 mg/kg): 12.9%
- Percent increase of r-CBF, 60 min. ([1]; p.o., 10 mg/kg): 14.4%
- Retention time ([1]; p.o., 20 mg/kg): > 4 h
- Percent increase of r-CBF, 30 min. ([1]; p.o., 20 mg/kg): 11.8%
- Percent increase of r-CBF, 60 min. ([1]; p.o., 20 mg/kg): 11.0%
- Retention time ([1]; p.o., 50 mg/kg): > 4 h
- Percent increase of r-CBF, 30 min. ([1]; p.o., 50 mg/kg): 14.6%
- Percent increase of r-CBF, 60 min. ([1]; p.o., 50 mg/kg): 10.0%
- cyclic-GMP content in the thoracic aortae [2]: increased dose-dependently
- vasorelaxating action [3]: show vasorelaxating action
- Relative Potency (vasorelaxation) ([3]; No. 2 = 1.00, minus: vasoconstriction, 0: no effect): 49.02
- Vasorelaxation [3, 7]: 250.0 mg
- LD50 [4]: 3000 to 3500 mg/kg

SMILES: CCC1=Nc2cc(C(=O)O)ccc2Oc2cc(OC)ccc21 [Compound No. 2]
- Retention time ([1]; p.o., 10 mg/kg): < 2 h
- Percent increase of r-CBF, 30 min. ([1]; p.o., 10 mg/kg): 0.99%
- Percent increase of r-CBF, 60 min. ([1]; p.o., 10 mg/kg): 9.1%
- Retention time ([1]; p.o., 20 mg/kg): > 4 h
- Percent increase of r-CBF, 30 min. ([1]; p.o., 20 mg/kg): 13.8%
- Percent increase of r-CBF, 60 min. ([1]; p.o., 20 mg/kg): 19.6%
- Retention time ([1]; p.o., 50 mg/kg): > 4 h
- Percent increase of r-CBF, 30 min. ([1]; p.o., 50 mg/kg): 28.9%
- Percent increase of r-CBF, 60 min. ([1]; p.o., 50 mg/kg): 22.4%
- vasorelaxating action [3]: show vasorelaxating action
- Vasorelaxation [3, 7]: 5.1 mg
- LD50 [4]: 4200 to 5000 mg/kg

SMILES: CCC1=Nc2cc(C(=O)O)ccc2Oc2cc(O)ccc21 [No. I, reference compound]
- Vasorelaxation [3, 7]: -20.5 mg

SMILES: CCOC(=O)c1ccc2c(c1)N=Cc1ccc(C)cc1O2 [No. II, reference compound]
- Vasorelaxation [3, 7]: 0 mg

SMILES: CCOC(=O)c1ccc2c(c1)N=C(c1ccccc1)c1ccc(OC)cc1O2 [No. III, reference compound]
- Vasorelaxation [3, 7]: 0 mg

SMILES: CCOC(=O)c1ccc2c(c1)N=C(CC)c1ccc(OC)cc1O2 [No. IV, reference compound]
- Vasorelaxation [3, 7]: 0 mg
- death ([5]; 2000 mg/kg daily for 30 days): 4/6

SMILES: CCC1Nc2cc(C(=O)O)ccc2Oc2cc(OC)ccc21 (centres unmarked) [No. V, reference compound]
- Vasorelaxation [3, 7]: 0 mg

SMILES: CCC1=Nc2cc(C(=O)O)ccc2Oc2cc(C)ccc21 [No. VII]
- death ([5]; 1000 mg/kg daily for 30 days): 5/6

SMILES: CCOC(=O)C1=C[C@]2(CC)CCCN3CCc4c(n1c1ccccc41)[C@@H]32 [Vinpocetine, vinpocetine, reference compound]
- Percent increase of r-CBF, 30 min. ([1]; i.v. over 10 minutes, 1 mg/kg): 1.0%
- Percent increase of r-CBF, 60 min. ([1]; i.v. over 10 minutes, 1 mg/kg): < 2.3%
- Retention time ([1]; i.v. over 10 minutes, 5 mg/kg): < 1 h
- Percent increase of r-CBF, 30 min. ([1]; i.v. over 10 minutes, 5 mg/kg): -0.9%
- Percent increase of r-CBF, 60 min. ([1]; i.v. over 10 minutes, 5 mg/kg): 8.3%
- Retention time ([1]; p.o., 20 mg/kg): < 1 h
- Percent increase of r-CBF, 30 min. ([1]; p.o., 20 mg/kg): 12.3%
- Percent increase of r-CBF, 60 min. ([1]; p.o., 20 mg/kg): 5.2%
